Experimental findings from ChEMBL document CHEMBL1201862, “PubChem BioAssay data set” (2004) are described below.

Each structure is given as a SMILES string.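 Five concentrations, 48 hours, 96-well plates. Abbreviation: GI50, concentration required for 50% inhibition of growth.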 Activity calls are given as the source filed them. Rule as the data show it: active = GI50 up to about 1.1 µM and inactive = higher.

Some test systems named below: OVCAR-4; OVCAR-5; SK-OV-3; HT-29; SN12C; 786-0; RXF 393; SF-539; Malme-3M; NCI-H226; SR; PC-3; SK-MEL-5; UACC-257; MDA-N; CAKI-1; MDA-MB-231; MDA-MB-435; NCI/ADR-RES; UO-31.
Common to all, as to test: growth of human tumour cells (NCI), 48 h

For the compound `Cc1cccc2c1c(=O)c1c(O)cc(O)cc1n2C`, the GI50 is > 100 µM (inactive) in the assay with OVCAR-4; > 100 µM (inactive) in the assay with OVCAR-5; 66.1 µM (inactive) with SK-OV-3; 72.3 µM (inactive) with HT-29; > 100 µM (inactive) with SN12C; > 100 µM (inactive) in the assay on 786-0. Besides, the GI50 in the assay with RXF 393 was 59.8 µM (inactive); with SF-539, > 100 µM (inactive); in the assay with Malme-3M, > 100 µM (inactive); in the assay on NCI-H226 it was > 100 µM (inactive); in the assay on SR, > 100 µM (inactive); in the assay with PC-3, > 100 µM (inactive). The GI50 with SK-MEL-5 is 34.2 µM (inactive); with UACC-257 it was > 100 µM (inactive); in the assay on MDA-N, > 100 µM (inactive); in the assay on CAKI-1, > 100 µM (inactive); in the assay on MDA-MB-231 it was > 100 µM (inactive); in the assay with MDA-MB-435 it was > 100 µM (inactive). The GI50 with NCI/ADR-RES was > 100 µM (inactive).
On to `CCOC(=O)c1cc(Br)c(-c2onc(C)c2Br)[nH]1`, for which the GI50 in the assay on OVCAR-4 is 88.1 µM (inactive); with UO-31 it was > 100 µM (inactive); with OVCAR-5 it was > 100 µM (inactive); in the assay with SK-OV-3, 25.9 µM (inactive); with HT-29, > 100 µM (inactive); in the assay with SN12C it was 80.7 µM (inactive). Besides, the GI50 with 786-0 is 21.6 µM (inactive); with RXF 393, 16.7 µM (inactive); with SF-539, 31.6 µM (inactive); in the assay on Malme-3M, 34.4 µM (inactive); with NCI-H226 it was 30.1 µM (inactive); in the assay with SR, > 100 µM (inactive). For the same compound, the GI50 was > 100 µM (inactive) in the assay on PC-3; 42.1 µM (inactive) with SK-MEL-5; 93.5 µM (inactive) with UACC-257; > 100 µM (inactive) with MDA-N; 45.7 µM (inactive) in the assay on CAKI-1; 17.1 µM (inactive) in the assay on MDA-MB-231. Besides, the figures for the GI50 in the assay on MDA-MB-435 and in the assay on NCI/ADR-RES were > 100 µM (inactive) and 40.6 µM (inactive), respectively.
As for `Cc1c(C)c(S(=O)(=O)N(CCCCCON)OCCCN)c(C)c2c1OC(C)(C)CC2`, the GI50 with OVCAR-4 was 7.5 µM (inactive); with UO-31, 16.6 µM (inactive); with OVCAR-5, 14.9 µM (inactive); in the assay with SK-OV-3 it was 14.5 µM (inactive); with HT-29, 9.89 µM (inactive); in the assay with SN12C it was 15.4 µM (inactive). Further, the GI50 is 16.7 µM (inactive) in the assay on 786-0; 12.3 µM (inactive) with RXF 393; 15.2 µM (inactive) with SF-539; 14.3 µM (inactive) in the assay with Malme-3M; 17.9 µM (inactive) in the assay on NCI-H226; 2.71 µM (inactive) in the assay on SR. Further, the GI50 in the assay on PC-3 was 13.2 µM (inactive); in the assay on SK-MEL-5, 15.9 µM (inactive); in the assay on UACC-257, 15.9 µM (inactive); in the assay with MDA-N it was 14.3 µM (inactive); in the assay on CAKI-1, 6.41 µM (inactive); in the assay on MDA-MB-231, 15.7 µM (inactive). The GI50 is 11.8 µM (inactive) in the assay with MDA-MB-435 and 15.9 µM (inactive) in the assay with NCI/ADR-RES.
Regarding `O=C1Nc2ccccc2/C1=c1\[nH]c(=O)/c(=C\c2ccc(OCc3ccccc3)cn2)[nH]c1=O`, the GI50 was 72.4 µM (inactive) in the assay with OVCAR-4; < 0.01 µM (active) in the assay on UO-31; > 100 µM (inactive) in the assay with OVCAR-5; 32.3 µM (inactive) in the assay on SK-OV-3; > 100 µM (inactive) in the assay with HT-29; > 100 µM (inactive) with SN12C. For the same compound, the GI50 with 786-0 was 18.8 µM (inactive); in the assay with RXF 393 it was 8.17 µM (inactive); in the assay on SF-539, 18.2 µM (inactive); in the assay with Malme-3M, 32.4 µM (inactive); with NCI-H226 it was > 100 µM (inactive); with SR it was 20.1 µM (inactive). Further, the GI50 in the assay with PC-3 was > 100 µM (inactive); with SK-MEL-5, 64.6 µM (inactive); with UACC-257, > 100 µM (inactive); in the assay on MDA-N, 83.2 µM (inactive); with CAKI-1, 0.303 µM (active); with MDA-MB-231, 35.1 µM (inactive). Further, the GI50 was 44.1 µM (inactive) in the assay with MDA-MB-435 and 91.6 µM (inactive) in the assay on NCI/ADR-RES.
As to `NCC(=O)Nc1ccc(S(=O)(=O)O)c2cc(S(=O)(=O)O)cc(S(=O)(=O)O)c12`, the GI50 with OVCAR-4, in the assay with UO-31, in the assay with OVCAR-5, in the assay with SK-OV-3, with HT-29 and with SN12C was > 100 µM (inactive) throughout. For the same compound, the GI50 in the assay with 786-0, in the assay on RXF 393, in the assay on SF-539, in the assay with Malme-3M, in the assay on NCI-H226 and in the assay with SR was > 100 µM (inactive) in each case. Further, the GI50 in the assay with PC-3, in the assay with SK-MEL-5, in the assay on UACC-257, with MDA-N, with CAKI-1 and in the assay on MDA-MB-231 was > 100 µM (inactive) throughout. In addition, the GI50 in the assay on MDA-MB-435 and with NCI/ADR-RES was > 100 µM (inactive) in each case.
Take `O=S(=O)(O)c1cc(/N=N/c2cc(S(=O)(=O)O)c3cccnc3c2O)ccc1/C=C/c1ccc(/N=N/c2cc(S(=O)(=O)O)c3cccnc3c2O)cc1S(=O)(=O)O`: the GI50 with OVCAR-4, in the assay with UO-31, in the assay on OVCAR-5, with SK-OV-3, in the assay with HT-29 and in the assay on SN12C was > 100 µM (inactive) throughout. Also, the GI50 is > 100 µM (inactive) in the assay with 786-0; > 31.6 µM (inactive) in the assay on RXF 393; > 100 µM (inactive) with SF-539; > 100 µM (inactive) in the assay on Malme-3M; > 100 µM (inactive) in the assay with NCI-H226; 21.7 µM (inactive) in the assay on SR. For the same compound, the GI50 in the assay on PC-3, in the assay with SK-MEL-5, in the assay on UACC-257, with MDA-N, in the assay on CAKI-1 and in the assay on MDA-MB-231 was > 100 µM (inactive) each time. In addition, the GI50 with MDA-MB-435 and in the assay with NCI/ADR-RES was > 100 µM (inactive) in each case.
For the compound `O=C1C2C3C=CC(C2C(=O)N1CN1CCOCC1)C1C2C(=O)N(CN4CCOCC4)C(=O)C2C31` (centres undefined), the GI50 in the assay on OVCAR-4 is > 43.9 µM (inactive); with UO-31, > 54 µM (inactive); in the assay on OVCAR-5 it was > 59.2 µM (inactive); in the assay on SK-OV-3 it was > 71.4 µM (inactive); in the assay with HT-29, > 60 µM (inactive); in the assay on SN12C, > 44.7 µM (inactive). The GI50 in the assay with 786-0 was > 42.8 µM (inactive); in the assay with RXF 393 it was > 49 µM (inactive); in the assay with SF-539 it was > 56.8 µM (inactive); in the assay on Malme-3M it was > 100 µM (inactive); in the assay with NCI-H226, > 47.3 µM (inactive); with SR, 30.8 µM (inactive). In addition, the GI50 was > 100 µM (inactive) with PC-3; > 43.2 µM (inactive) in the assay with SK-MEL-5; > 49.3 µM (inactive) in the assay on UACC-257; > 100 µM (inactive) with MDA-N; > 68.2 µM (inactive) in the assay on CAKI-1; > 100 µM (inactive) with MDA-MB-231. Further, the GI50 with MDA-MB-435 and in the assay on NCI/ADR-RES was > 100 µM (inactive) throughout.
